Where “and” joins values, the source holds several entries; their conditions need not be identical. Identical values can stand only once. Toxic doses and inconclusive results are not listed. How the source made its calls: active means survival T/C of 150% or more; inactive means T/C below 125% in these data. Numbered stars: 1 amine (or outer) side, 2 acyl side, 3 side chain; on linkers, the order of the positions; unused ones are H or OH. Bridge positions count the residues as written; N and C are the ends. Square brackets hold non-standard residues; d marks the D form. Peptide text beside a SMILES is read from it. I, II: the chains in the order shown. * marks the point of attachment. ξ: configuration not given here. Quinaldoyl(3-OH,6-OMe) = COc1ccc2nc(C(=O)*)c(O)cc2c1; X8 = CC(=O)OC1CC=NN([*:1])C1C(=O)[*:2]; ξNMeVal(3-OH) = CNC(C(=O)O)C(C)(C)O; X7 = O=C(C1C(O)CC=NN1[*:1])[*:2]; Sar = CNCC(=O)O
Test system: P388 leukemia ip, CD2F1 mice, survival T/C
Assay: NCI In Vivo Anticancer Drug Screen. Data for tumor model P388 Leukemia (intraperitoneal) in CD2F1 (CDF1) mice
Conditions: endpoint: median survival time, higher = longer survival
Outline: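 Mice carrying the transplanted tumor received test compound or vehicle. Survival was recorded in each group, and the value is the treated-group measurement divided by that of the vehicle-treated control group.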

[1] = dose: 50.0 mg/kg/injection, schedule: Q01DX005 (ip), vehicle: saline with Tween-80
[2] = dose: 100.0 mg/kg/injection, schedule: Q01DX005 (ip), vehicle: saline with Tween-80
[3] = dose: 200.0 mg/kg/injection, schedule: Q01DX005 (ip), vehicle: saline with Tween-80
[4] = dose: 100.0 mg/kg/injection, schedule: Q01DX001 (ip), vehicle: saline with Tween-80
[5] = dose: 200.0 mg/kg/injection, schedule: Q01DX001 (ip), vehicle: saline with Tween-80
[6] = dose: 100.0 mg/kg/injection, schedule: Q01DX001 (ip), vehicle: Klucel (hydroxypropylcellulose) (HPC)
[7] = dose: 100.0 mg/kg/injection, schedule: Q01DX009 (ip), vehicle: saline with Tween-80
[8] = dose: 200.0 mg/kg/injection, schedule: Q01DX009 (ip), vehicle: saline with Tween-80
[9] = dose: 0.93 mg/kg/injection, schedule: Q01DX005 (ip), vehicle: Klucel (hydroxypropylcellulose) (HPC)
[10] = dose: 1.87 mg/kg/injection, schedule: Q01DX005 (ip), vehicle: Klucel (hydroxypropylcellulose) (HPC)
[11] = dose: 3.75 mg/kg/injection, schedule: Q01DX005 (ip), vehicle: Klucel (hydroxypropylcellulose) (HPC)
[12] = dose: 50.0 mg/kg/injection, schedule: Q01DX005 (ip), vehicle: Klucel (hydroxypropylcellulose) (HPC)
[13] = dose: 100.0 mg/kg/injection, schedule: Q01DX005 (ip), vehicle: Klucel (hydroxypropylcellulose) (HPC)
[14] = dose: 200.0 mg/kg/injection, schedule: Q01DX005 (ip), vehicle: Klucel (hydroxypropylcellulose) (HPC)

Measured: T/C

CCC1(C)COC(=O)C1=C(C(=O)OC)C(=O)OC (stereo not given)
inactive: dose: 100.0 mg/kg/injection, schedule: Q04DX003 (ip), vehicle: saline 112 % of control | dose: 200.0 mg/kg/injection, schedule: Q04DX003 (ip), vehicle: saline 113 % of control | dose: 400.0 mg/kg/injection, schedule: Q04DX003 (ip), vehicle: saline 105 % of control

O=C1CSC(c2c(F)cccc2F)N1c1nncs1 (stereo not given)
inactive: [1] 98 % of control | [2] 100 % of control | [3] 98 % of control

CCCCCCCCCCCC(=O)NC(=O)N1CCOCC1
inactive: [4] 95 % of control | [5] 100 % of control | dose: 400.0 mg/kg/injection, schedule: Q01DX001 (ip), vehicle: saline with Tween-80 100 % of control

Cc1cc(Nc2ccc(O)cc2)nc(N)n1
inactive: [1] 105 % of control | [2] 99 % of control | [3] 113 % of control

COc1cc(OC)cc(C2(C(=O)[C@@H]3OC(C)(C)OC3C)SCCCS2)c1 (stereo not given in full)
inactive: [6] 98 % of control | dose: 200.0 mg/kg/injection, schedule: Q01DX001 (ip), vehicle: Klucel (hydroxypropylcellulose) (HPC) 94 % of control | dose: 400.0 mg/kg/injection, schedule: Q01DX001 (ip), vehicle: Klucel (hydroxypropylcellulose) (HPC) 90 % of control

CS(=O)(=O)Cc1cc(-c2ccccc2)no1
inactive: dose: 60.0 mg/kg/injection, schedule: Q01DX005 (ip), vehicle: saline with Tween-80 100 % of control | dose: 120.0 mg/kg/injection, schedule: Q01DX005 (ip), vehicle: saline with Tween-80 99 % of control | dose: 240.0 mg/kg/injection, schedule: Q01DX005 (ip), vehicle: saline with Tween-80 100 % of control

CCCCCC(C(=O)O)(c1ccccc1)c1ccccc1
inactive: [1] 106 % of control | [2] 106 % of control | [3] 106 % of control

O=C(NCCCCC(NC(=O)c1ccccc1)C(=O)O)OCc1ccccc1 (stereo not given)
inactive: [1] 96 % of control | [2] 100 % of control | [3] 92 % of control

COc1ccc2nc(C(=O)NC3COC(=O)C(C(C)(C)O)N(C)C(=O)CN(C)C(=O)CNC(=O)C4C(OC(C)=O)CC=NN4C(=O)C(NC(=O)c4nc5ccc(OC)cc5cc4O)COC(=O)C(C(C)(C)O)N(C)C(=O)CN(C)C(=O)CNC(=O)C4C(O)CC=NN4C3=O)c(O)cc2c1 (stereo not given) (I: {Quinaldoyl(3-OH,6-OMe)}-S[X7]G[Sar][ξNMeVal(3-OH)] / II: {Quinaldoyl(3-OH,6-OMe)}-S[X8]G[Sar][ξNMeVal(3-OH)]; ester I:1-II:C, I:C-II:1; configuration not given here)
inactive: dose: 6.25 micrograms/kg/injection, schedule: Q01DX005 (ip), vehicle: DMSO 108 % of control | dose: 12.5 micrograms/kg/injection, schedule: Q01DX005 (ip), vehicle: DMSO 112 % of control | dose: 25.0 micrograms/kg/injection, schedule: Q01DX005 (ip), vehicle: DMSO 118 % of control | dose: 50.0 micrograms/kg/injection, schedule: Q01DX005 (ip), vehicle: DMSO 119 % of control | dose: 100.0 micrograms/kg/injection, schedule: Q01DX005 (ip), vehicle: DMSO 123 % of control

O=C1OC(=Nc2cccc([N+](=O)[O-])c2)c2ccccc21
inactive: dose: 25.0 mg/kg/injection, schedule: Q01DX009 (ip), vehicle: saline with Tween-80 99 % of control and 103 % of control | dose: 50.0 mg/kg/injection, schedule: Q01DX009 (ip), vehicle: saline with Tween-80 100 % of control and 95 % of control | [7] 99 % of control and 95 % of control | [8] 88 % of control and 95 % of control

Cc1cc(N=Nc2ccccc2)cc(C)c1N
inactive: [7] 90 % of control | [8] 90 % of control | dose: 400.0 mg/kg/injection, schedule: Q01DX009 (ip), vehicle: saline with Tween-80 100 % of control

Nc1ccccc1N=C(CC(=O)c1ccccc1)C(F)(F)F
inactive: dose: 100.0 mg/kg/injection, schedule: Q04DX002 (ip), vehicle: saline 99 % of control | dose: 200.0 mg/kg/injection, schedule: Q04DX002 (ip), vehicle: saline 101 % of control | dose: 400.0 mg/kg/injection, schedule: Q04DX002 (ip), vehicle: saline 97 % of control

C/C(=N/NC(=O)O[C@@H]1C[C@H](C)CC[C@H]1C(C)C)c1cc[c]([Sn]([CH3])([Cl])[c]2ccccc2)cc1 (stereo not given in full)
inactive: [9] 108 % of control | [10] 100 % of control | [11] 100 % of control and 109 % of control | dose: 7.5 mg/kg/injection, schedule: Q01DX005 (ip), vehicle: Klucel (hydroxypropylcellulose) (HPC) 107 % of control

O=C(Nc1ccccc1)Nc1nncs1
inactive: dose: 1.56 mg/kg/injection, schedule: Q01DX009 (ip), vehicle: distilled water + Tween-80 104 % of control | dose: 3.13 mg/kg/injection, schedule: Q01DX009 (ip), vehicle: distilled water + Tween-80 109 % of control | dose: 6.25 mg/kg/injection, schedule: Q01DX009 (ip), vehicle: distilled water + Tween-80 103 % of control | dose: 12.5 mg/kg/injection, schedule: Q01DX009 (ip), vehicle: distilled water + Tween-80 104 % of control | dose: 25.0 mg/kg/injection, schedule: Q01DX009 (ip), vehicle: distilled water + Tween-80 104 % of control

COc1ccc(-n2nnnc2N(C)c2ccccc2)cc1
inactive: dose: 50.0 mg/kg/injection, schedule: Q04DX003 (ip), vehicle: saline with Tween-80 100 % of control | dose: 100.0 mg/kg/injection, schedule: Q04DX003 (ip), vehicle: saline with Tween-80 94 % of control | dose: 200.0 mg/kg/injection, schedule: Q04DX003 (ip), vehicle: saline with Tween-80 96 % of control

CCN(CC)CCCN(C)Cc1c(-c2ccccc2)oc(-c2ccccc2)c1Cl
inactive: dose: 6.25 mg/kg/injection, schedule: Q01DX005 (ip), vehicle: saline with Tween-80 106 % of control | dose: 12.5 mg/kg/injection, schedule: Q01DX005 (ip), vehicle: saline with Tween-80 106 % of control | dose: 25.0 mg/kg/injection, schedule: Q01DX005 (ip), vehicle: saline with Tween-80 107 % of control | [1] 104 % of control

O=C1Nc2ccccc2/C1=N/N1C(=O)CSC1=S
inactive: [9] 97 % of control | [10] 94 % of control | [11] 88 % of control

N#Cc1c(N)sc(=S)c2ccccc12
inactive: dose: 50.0 mg/kg/injection, schedule: Q01DX009 (ip), vehicle: saline 91 % of control | dose: 100.0 mg/kg/injection, schedule: Q01DX009 (ip), vehicle: saline 104 % of control | dose: 200.0 mg/kg/injection, schedule: Q01DX009 (ip), vehicle: saline 95 % of control

COc1cc2c[n+](C)c3c(c2cc1OC)Cc1c-3ccc(O)c1OC
inactive: [6] 116 % of control

O=C(NCC1OC(n2cnc3c(=O)[nH]cnc32)C(O)C1O)c1cccc(S(=O)(=O)F)c1 (stereo not given)
inactive: dose: 50.0 mg/kg/injection, schedule: Q01DX001 (ip), vehicle: saline with Tween-80 101 % of control | [4] 111 % of control | [5] 100 % of control

Cc1ccc(S(=O)(=O)OC2CCCCC2c2ccccc2)cc1 (stereo not given)
inactive: dose: 6.25 mg/kg/injection, schedule: Q01DX001 (ip), vehicle: Klucel (hydroxypropylcellulose) (HPC) 102 % of control | dose: 12.5 mg/kg/injection, schedule: Q01DX001 (ip), vehicle: Klucel (hydroxypropylcellulose) (HPC) 116 % of control and 98 % of control | dose: 25.0 mg/kg/injection, schedule: Q01DX001 (ip), vehicle: Klucel (hydroxypropylcellulose) (HPC) 102 % of control and 90 % of control

NNC(=O)CN(CC(=O)NN)CC(=O)NN
inactive: dose: 50.0 mg/kg/injection, schedule: Q01DX005 (ip), vehicle: water 99 % of control | dose: 100.0 mg/kg/injection, schedule: Q01DX005 (ip), vehicle: water 101 % of control | dose: 200.0 mg/kg/injection, schedule: Q01DX005 (ip), vehicle: water 110 % of control

N#Cc1ccc(-c2ccccc2)nc1Cl
inactive: dose: 25.0 mg/kg/injection, schedule: Q01DX005 (ip), vehicle: Klucel (hydroxypropylcellulose) (HPC) 98 % of control | [12] 98 % of control | [13] 93 % of control | [14] 102 % of control

CNC(=O)N1CC2CCC(C)(C1)OC2(C)C (stereo not given)
inactive: [12] 97 % of control | [13] 100 % of control and 103 % of control | [14] 103 % of control and 106 % of control

CCCCCCCCCCCCCCCC[N+](C)(C)CCSCC(N)=O
inactive: dose: 12.5 mg/kg/injection, schedule: Q04DX003 (ip), vehicle: saline 109 % of control | dose: 50.0 mg/kg/injection, schedule: Q04DX003 (ip), vehicle: saline 111 % of control and 121 % of control

Reference: PubChem BioAssay AID330 (DTP/NCI, 2004)
